# Legend:
# Assay in all cases: relative viability (nuclei count vs DMSO), 5 days (fraction); higher = more cells survive
# Crizotinib + Vorinostat = compound: C[C@@H](Oc1cc(-c2cnn(C3CCNCC3)c2)cnc1N)c1c(Cl)ccc(F)c1Cl [Crizotinib] + O=C(CCCCCCC(=O)Nc1ccccc1)NO [Vorinostat] (partner 1 µM)
# How it was run: (§1)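 Relative viability divides the nuclei count in treated wells by that in vehicle wells. Lung cancer cell lines were seeded in 1536-well plates, dosed by pin tool the next day, and fixed and stained after 5 days in one step with final 0.05% Triton X-100, 1% formaldehyde and 1 ug/ml Hoechst. Dosing was a single drug or a fixed anchor-drug dose plus five library-drug doses (not always all listed) in √10 steps, and values are medians of duplicate plates imaged at 4×.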
# Carfilzomib + OSI-027 = compound: CC(C)C[C@H](NC(=O)[C@H](CCc1ccccc1)NC(=O)CN1CCOCC1)C(=O)N[C@@H](Cc1ccccc1)C(=O)N[C@@H](CC(C)C)C(=O)[C@@]1(C)CO1 [Carfilzomib] + COc1cccc2cc(-c3nc([C@H]4CC[C@H](C(=O)O)CC4)n4ncnc(N)c34)[nH]c12 [OSI-027] (partner 0.5 µM)
# How it was run: as §1
# Olaparib + Pictilisib = compound: O=C(c1cc(Cc2n[nH]c(=O)c3ccccc23)ccc1F)N1CCN(C(=O)C2CC2)CC1 [Olaparib] + CS(=O)(=O)N1CCN(Cc2cc3nc(-c4cccc5[nH]ncc45)nc(N4CCOCC4)c3s2)CC1 [Pictilisib] (partner 1 µM)
# How it was run: as §1
# Carfilzomib + Olaparib = compound: CC(C)C[C@H](NC(=O)[C@H](CCc1ccccc1)NC(=O)CN1CCOCC1)C(=O)N[C@@H](Cc1ccccc1)C(=O)N[C@@H](CC(C)C)C(=O)[C@@]1(C)CO1 [Carfilzomib] + O=C(c1cc(Cc2n[nH]c(=O)c3ccccc23)ccc1F)N1CCN(C(=O)C2CC2)CC1 [Olaparib] (partner 8 µM)
# How it was run: as §1
Cell Line,relative viability (Crizotinib + Vorinostat; first compound 0.01 µM),relative viability (Crizotinib + Vorinostat; first compound 0.03162 µM),relative viability (Crizotinib + Vorinostat; first compound 0.1 µM),relative viability (Crizotinib + Vorinostat; first compound 0.3162 µM),relative viability (Crizotinib + Vorinostat; first compound 1 µM),relative viability (Carfilzomib + OSI-027; first compound 0.001 µM),relative viability (Carfilzomib + OSI-027; first compound 0.003162 µM),relative viability (Carfilzomib + OSI-027; first compound 0.01 µM),relative viability (Carfilzomib + OSI-027; first compound 0.03162 µM),relative viability (Carfilzomib + OSI-027; first compound 0.1 µM),relative viability (Olaparib + Pictilisib; first compound 0.08 µM),relative viability (Olaparib + Pictilisib; first compound 0.253 µM),relative viability (Olaparib + Pictilisib; first compound 2.53 µM),relative viability (Olaparib + Pictilisib; first compound 8 µM),relative viability (Carfilzomib + Olaparib; first compound 0.001 µM),relative viability (Carfilzomib + Olaparib; first compound 0.003162 µM),relative viability (Carfilzomib + Olaparib; first compound 0.01 µM),relative viability (Carfilzomib + Olaparib; first compound 0.03162 µM),relative viability (Carfilzomib + Olaparib; first compound 0.1 µM)
HCC-78,0.418,0.388,0.402,0.336,0.437,0.332,0.318,0.387,0.359,0.227,0.241,0.204,0.208,0.196,0.733,0.881,0.844,0.552,0.233
HCC-366,0.336,0.423,0.31,–,0.403,0.914,1.02,1.12,0.839,0.035,0.135,0.179,0.11,0.138,0.364,0.39,0.362,0.311,0.0358
HCC-827,0.873,0.602,0.917,0.884,–,0.796,0.829,0.872,0.746,0.511,0.905,0.781,1.07,0.95,0.671,0.619,0.712,0.643,0.108
HOP-62,0.638,0.672,0.613,0.3,0.685,0.892,0.899,0.575,0.317,0.083,0.846,0.601,0.698,0.464,0.399,0.397,0.443,–,0.0477
IA-LM,0.977,0.958,1.07,0.949,0.907,–,–,–,–,–,0.392,0.372,0.321,0.317,1.06,0.779,0.738,0.0714,0.0425
LC-2-ad,0.703,0.656,0.699,–,0.704,0.83,1.02,0.901,0.633,0.207,0.529,0.523,0.491,0.336,0.673,0.715,0.667,0.637,0.237
LCLC-97TM1,0.672,0.697,0.686,0.223,0.658,0.459,0.512,0.533,0.298,0.246,0.263,0.233,0.174,0.152,0.367,0.527,0.318,0.0498,0.0493
LCLC-103H,0.716,0.869,0.841,0.434,0.8,0.462,0.463,0.541,0.483,0.277,0.682,0.557,0.53,0.52,0.733,0.781,0.793,0.428,0.354
LK-2,0.346,0.29,0.314,0.252,0.277,0.223,0.201,0.166,0.18,0.181,0.752,0.587,0.599,0.5,0.646,0.661,0.86,0.149,0.149
LOU-NH91,0.893,0.927,0.989,–,0.836,0.77,0.801,0.711,0.259,0.322,0.559,0.524,0.515,0.503,0.923,0.992,0.871,0.34,0.287
LU99A,0.448,0.515,0.512,0.459,0.507,0.293,0.309,0.317,0.275,0.192,0.303,0.293,0.3,0.296,0.287,0.233,0.276,0.168,0.137
LXF-289,0.75,0.799,0.757,0.599,0.786,0.818,0.9,0.749,0.163,0.0509,0.825,0.713,0.729,0.74,1.09,1.19,1.07,0.0687,0.0894
NCI-H522,0.851,1.03,0.803,0.877,0.867,0.585,0.731,0.634,0.461,0.456,–,–,–,–,0.586,0.778,0.694,0.489,0.314
NCI-H1299,–,–,–,–,–,–,–,–,–,–,0.815,0.805,0.8,0.582,0.964,0.998,0.933,0.191,0.116
NCI-H1563,–,–,–,–,–,0.775,0.71,0.797,0.705,0.586,0.614,0.645,0.695,0.635,–,–,–,–,–
NCI-H1623,–,–,–,–,–,0.449,0.462,0.46,0.374,0.312,–,–,–,–,–,–,–,–,–
NCI-H1648,–,0.412,0.341,0.506,0.619,–,0.272,0.256,0.255,0.298,–,–,–,–,1.07,0.563,0.745,0.922,0.189
NCI-H1703,–,–,–,–,–,–,–,–,–,–,0.299,0.346,0.275,0.27,0.44,0.493,0.124,0.1,0.129
NCI-H1792,–,–,–,–,–,0.727,0.794,0.684,0.633,0.519,0.265,0.241,0.265,0.217,–,0.41,0.633,0.393,0.0411
NCI-H2342,0.799,0.844,0.714,0.713,0.814,0.663,0.621,0.723,0.632,0.495,–,–,–,–,0.424,0.541,0.499,0.497,0.317
SW 900,0.422,0.615,0.511,0.481,0.712,0.451,0.362,0.114,0.0786,0.135,–,–,–,–,–,0.756,0.323,0.174,0.168

# Source: the supplement of paper PMC10307832
